Molecular target: T1, mAChR M4 (UniProt P08173)
T1 construct: hM1 and hM4 cDNAs were purchased from Missouri S&T cDNA Resource
T1 sequence (P08173 1-479): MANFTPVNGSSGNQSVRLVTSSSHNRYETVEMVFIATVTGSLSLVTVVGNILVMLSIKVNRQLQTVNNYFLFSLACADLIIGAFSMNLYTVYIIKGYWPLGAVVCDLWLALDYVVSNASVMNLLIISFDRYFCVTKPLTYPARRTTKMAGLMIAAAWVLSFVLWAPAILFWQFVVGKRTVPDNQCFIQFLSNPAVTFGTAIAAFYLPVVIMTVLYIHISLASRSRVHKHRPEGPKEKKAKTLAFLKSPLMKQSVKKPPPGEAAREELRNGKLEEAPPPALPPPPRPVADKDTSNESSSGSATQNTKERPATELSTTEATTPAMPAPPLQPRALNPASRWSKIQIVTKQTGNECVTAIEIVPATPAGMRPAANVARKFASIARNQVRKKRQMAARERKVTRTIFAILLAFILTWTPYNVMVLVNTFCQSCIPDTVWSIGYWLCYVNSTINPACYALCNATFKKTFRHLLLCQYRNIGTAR
Assay: mAChR M4 cell-based functional assay (calcium mobilization, Fluo-4, FDSS)
Conditions: for Emax (%)*: % ACh maximum at 30 μM; for pEC50: positive allosteric modulator activity, EC20 acetylcholine response; for pEC50 / EC50: CHO-K1 cells; for EC50: positive allosteric modulator activity: concentration-dependent increase in the EC20 acetylcholine response, >10 μM estimated for low potency (no plateau)
Description: Chinese hamster ovary (CHO-K1) cells stably expressing rat (r)M1 were purchased from the American Type Culture Collection and cultured according to their indicated protocol. CHO cells stably expressing human (h)M2, hM3, and hM5 were described previously (Levey A I, et al., (1991) J Neurosci 11:3218-3226.); hM1 and hM4 cDNAs were purchased from Missouri S&T cDNA Resource; rM4 cDNA was provided by T. I. Bonner (National Institutes of Health, Bethesda, Md.). rM2 and rM3 were cloned from a rat brain cDNA library and sequence verified. hM1, rM2, rM3, hM4, and rM4 cDNAs were used to stably transfect CHO-K1 cells purchased from the American Type Culture Collection using Lipofectamine-2000. To make stable rM2, hM2, rM3, hM4, and rM4 cell lines for use in calcium mobilization assays, these cells also were stably transfected with a chimeric G-protein (Gqi5) (provided by B. R. Conklin, University of California, San Francisco) using Lipofectamine 2000. rM1, hM1, rM3, hM3, rM5, and hM5 cells were grown in Ham's F-12 medium containing 10% heat-inactivated fetal bovine serum (FBS), 20 mM HEPES, and 50 µg/mL G418 sulfate. rM2-Gqi5, hM2-Gqi5, and hM4-Gqi5 cells were grown in the same medium also containing 500 µg/mL Hygromycin B. Stable rM4-Gqi5 cells were grown in DMEM containing 10% heat-inactivated FBS, 20 mM HEPES, 400 µg/mL G418 sulfate, and 500 µg/mL Hygromycin B.
For high throughput measurement of agonist-evoked increases in intracellular calcium, CHO-K1 cells stably expressing the target muscarinic receptor were plated in growth medium lacking G418 and hygromycin at 15,000 cells/20 μL/well in Greiner 384-well black-walled, tissue culture (TC)-treated, clear-bottom plates (VWR). Cells were incubated overnight at 37° C. and 5% CO2. The next day, cells were washed using an ELX 405 (BioTek) with four washes (80 μL) of assay buffer then aspirated to 20 μL. Next, […] of 16 μM Fluo-4/acetoxymethyl ester (Invitrogen, Carlsbad, Calif.) prepared as a 2.3 mM stock in DMSO and mixed in a 1:1 ratio with 10% (w/v) Pluronic F-127 and diluted in assay buffer was added to the wells and the cell plates were incubated for 50 min at 37° C. and 5% CO2. Dye was removed by washing with the ELX 405 (four 80 μL washes of assay buffer) then aspirated to 20 μL. Compound master plates were formatted in an 11 point CRC format (1:3 dilutions) in 100% DMSO with a starting concentration of 10 mM using the BRAVO liquid handler (Agilent). Test compound CRCs were then transferred to daughter plates (240 nL) using the Echo acoustic plate reformatter (Labcyte, Sunnyvale, Calif.) and then diluted into assay buffer (40 μL) to a 2× stock using a Thermo Fisher Combi (Thermo Fisher Scientific, Waltham, Mass.).
Calcium flux was measured using the Functional Drug Screening System (FDSS) 6000 (Hamamatsu Corporation, Tokyo, Japan) as an increase in the fluorescent static ratio. Compounds were applied to cells (20 μL, 2×) using the automated system of the FDSS 6000 at 4 s into the 300 s protocol and the data were collected at 1 Hz. At 144 s into the 300 s protocol, 10 μL of an EC20 concentration of the muscarinic receptor agonist acetylcholine was added (5×), followed by the addition of 12 μL an EC80 concentration of acetylcholine at the 230 s time point (5×). Agonist activity was analyzed as a concentration-dependent increase in calcium mobilization upon compound addition. Positive allosteric modulator activity was analyzed as a concentration-dependent increase in the EC20 acetylcholine response. Antagonist activity was analyzed as a concentration-dependent decrease in the EC80 acetylcholine response. Concentration-response curves were generated using a four-parameter logistical equation in XLfit curve fitting software (IDBS, Bridgewater, N.J.) for Excel (Microsoft, Redmond, Wash.) or Prism (GraphPad Software, Inc., San Diego, Calif.). […]

SMILES | Emax (%)* [%] | pEC50 | EC50 [µM]
Cc1cc(C)c2c(n1)sc1c(NCc3ccc(C)o3)nn(C)c12 [Compound 78, 1,6,8-trimethyl-N-((5-methylfuran-2-yl)methyl)-1H-pyrazolo[3′,4′:4,5]thieno[2,3-b]pyridin-3-amine] | 84 | 7.05 | 0.09
Cc1ccc2c(n1)sc1c(NCCC(C)C)nn(C)c12 [Compound 54, N-isopentyl-1,6-dimethyl-1H-pyrazolo[3′,4′:4,5]thieno[2,3-b]pyridin-3-amine] | 71 | 6.06 | 0.88
Cc1nc2sc3c(NCc4ccccc4)nn(C)c3c2c(C)c1Cl [Compound 17, N-benzyl-7-chloro-1,6,8-trimethyl-1H-pyrazolo[3′,4′:4,5]thieno[2,3-b]pyridin-3-amine] | 39 | <5.00 | > 10
Cc1cc(C)c2c(n1)sc1c(NC(C)C)nn(C)c12 [Compound 41, N-isopropyl-1,6,8-trimethyl-1H-pyrazolo[3′,4′:4,5]thieno[2,3-b]pyridin-3-amine] | 87 | 6.11 | 0.78
Cc1cc(C)c2c(n1)sc1c(NC(=O)C3CC3)nn(C)c12 [Compound 46, N-(1,6,8-trimethyl-1H-pyrazolo[3′,4′:4,5]thieno[2,3-b]pyridin-3-yl)cyclopropanecarboxamide] | 44 | <5.00 | > 10
Cc1cc(C)c2c(n1)sc1c(NCc3ccco3)n[nH]c12 [Compound 35, N-(furan-2-ylmethyl)-6,8-dimethyl-1H-pyrazolo[3′,4′:4,5]thieno[2,3-b]pyridin-3-amine] | 80 | 5.92 | 1.2
Cc1cc(C)c2c(n1)sc1c(NCc3ccncc3)nn(C)c12 [Compound 42, 1,6,8-trimethyl-N-(pyridin-4-ylmethyl)-1H-pyrazolo[3′,4′:4,5]thieno[2,3-b]pyridin-3-amine] | 93 | 6.82 | 0.15
Cc1cc(C)c2c(n1)sc1c(NCc3csc(C)n3)nn(C)c12 [Compound 82, 1,6,8-trimethyl-N-((2-methylthiazol-4-yl)methyl)-1H-pyrazolo[3′,4′:4,5]thieno[2,3-b]pyridin-3-amine] | 63 | 6.41 | 0.39
Cc1ccc2c(n1)sc1c(NCc3ccco3)n[nH]c12 [Compound 44, N-(furan-2-ylmethyl)-6-methyl-1H-pyrazolo[3′,4′:4,5]thieno[2,3-b]pyridin-3-amine] | 62 | 5.30 | 5
Cc1ccc2c(n1)sc1c(NC(C)C)n[nH]c12 [Compound 45, N-isopropyl-6-methyl-1H-pyrazolo[3′,4′:4,5]thieno[2,3-b]pyridin-3-amine] | 37 | <5.00 | > 10
Cc1ccc2c(n1)sc1c(NCc3ccc(Cl)cc3)nn(C)c12 [Compound 56, N-(4-chlorobenzyl)-1,6-dimethyl-1H-pyrazolo[3′,4′:4,5]thieno[2,3-b]pyridin-3-amine] | 56 | <5.00 | > 10
CCNc1n[nH]c2c1sc1nc(C)cc(C)c12 [Compound 15, N-ethyl-6,8-dimethyl-1H-pyrazolo[3′,4′:4,5]thieno[2,3-b]pyridin-3-amine] | 65 | 5.68 | 2.1
Cc1cc(C)c2c(n1)sc1c(NC(=O)C3CC3)n[nH]c12 [Compound 2, N-(6,8-dimethyl-1H-pyrazolo[3′,4′:4,5]thieno[2,3-b]pyridin-3-yl)cyclopropanecarboxamide] | 36 | 5.42 | 3.84

Continued, values first:

Emax (%)* [%] | pEC50 | EC50 [µM] | SMILES
61 | 6.00 | 1 | Cc1cc(C)c2c(n1)sc1c(NCC(C)(C)C)nn(C)c12 [Compound 104, 1,6,8-trimethyl-N-neopentyl-1H-pyrazolo[3′,4′:4,5]thieno[2,3-b]pyridin-3-amine]
67 | 5.89 | 1.3 | Cc1cc(C)c2c(n1)sc1c(NCc3ccc4[nH]ccc4c3)nn(C)c12 [Compound 88, N-((1H-indo1-5-yl)methyl)-1,6,8-trimethyl-1H-pyrazolo[3′,4′:4,5]thieno[2,3-b]pyridin-3-amine]
– | <5.00 | > 10 | CCCn1nc(N)c2sc3nc(C)cc(C)c3c21 [Compound 166, 6,8-dimethyl-1-propyl-1H-pyrazolo[3′,4′:4,5]thieno[2,3-b]pyridin-3-amine]
– | <5.00 | > 10 | Cc1cc(C)c2c(n1)sc1c(NC(=O)C3CCCCC3)nn(C)c12 [Compound 153, N-(1,6,8-trimethyl-1H-pyrazolo[3′,4′:4,5]thieno[2,3-b]pyridin-3-yl)cyclohexanecarboxamide]
– | <5.00 | > 10 | Cc1nc2sc3c(NCc4ccc(F)c(F)c4)n[nH]c3c2c(C)c1Cl [Compound 146, 7-chloro-N-(3,4-difluorobenzyl)-6,8-dimethyl-1H-pyrazolo[3′,4′:4,5]thieno[2,3-b]pyridin-3-amine]
35 | <5.00 | > 10 | Cc1cc(C)c2c(n1)sc1c(NC3CCN(C)C3)nn(C)c12 (stereo not shown) [Compound 105, ,6,8-trimethyl-N-(1-methylpyrrolidin-3-yl)-1H-pyrazolo[3′,4′:4,5]thieno[2,3-b]pyridin-3-amine]
– | <5.00 | > 10 | Cc1cc(C)c2c(n1)sc1c(NC3CCCN(C(=O)OC(C)(C)C)C3)n[nH]c12 (stereo not shown) [Compound 135, tert-butyl 3-((6,8-dimethyl-1H-pyrazolo[3′,4′:4,5]thieno[2,3-b]pyridin-3-yl)amino)piperidine-1-carboxylate]
73 | 7.24 | 0.057 | Cc1cc(C)c2c(n1)sc1c(NCc3ccc(S(C)(=O)=O)cc3)nn(CCO)c12 [Compound 116, 2-(6,8-dimethyl-3-((4-(methylsulfonyl)benzyl)amino)-1H-pyrazolo[3′,4′:4,5]thieno[2,3-b]pyridin-1-yl)ethanol]
– | <5.00 | > 10 | Cc1cc(C)c2c(n1)sc1c(N)nn(C(=O)OC(C)(C)C)c12 [Compound 125, tert-butyl 3-amino-6,8-dimethyl-1H-pyrazolo[3′,4′:4,5]thieno[2,3-b]pyridine-1-carboxylate]

Reference: patent publication US9056876B2, “Substituted 1H-pyrazolo[3′,4′,4,5]thieno[2,3-b]pyridin-3-amine analogs as positive allosteric modulators of the muscarinic acetylcholine receptor M4” (VANDERBILT UNIVERSITY, priority 2011, dated 2015)
